This assay deals with ZW658 strain. The experiment in a line: Tube fermentation of ZW658 on glucose and xylose with various sugar alcohols (Example 14). In kind it is cell-based, Zymomonas mobilis. The method, then:
Approximately 1 ml of well mixed sample was obtained from flask or fermentor. First the sample absorbance was measured directly with a spectrophotometer (Amersham Biosciences Ultrospec 3300pro, GE Healthcare, Piscataway, N.J., USA). If the reading was lower than 0.6 unit, no dilution was needed. If the reading was higher than 0.6 unit, the sample was diluted with culture medium until the actual reading was in the range of 0.1 to 0.6 unit. The original OD was calculated from the dilution ratio and the actual reading.
The analysis of sugars, acetate, ethanol, and other by-products was done with an Agilent 1100 series HPLC and Agilent ChemStation software for LC 3D. The column was BioRad Aminex HPX-87H(HPLC Organic Analysis Column 125-0140) with BioRad Micro-Guard Cartridge Cation-H (125-0129). The operating conditions were:
In six sterilized 50 ml screw-cap centrifuge tubes (Cat. No. 21008-178, VWR International, USA), 200 μl of ZW658 strain glycerol stock at OD600 of approximately 10 was inoculated into each flask with 25 ml of aqueous solution containing 92 g/L glucose, 82 g/L xylose, 10 g/L yeast extract (YE), 2 g/L KH2PO4, 1 g/L MgSO4.7H2O, and 10 mM of D-sorbitol, L-sorbitol, D-threitol, myo-inositol, or xylitol. The control had no addition of sugar alcohol. Initial pH was adjusted to 5.5 with 4 N H3PO4 solution. Fermentation was conducted at 33° C. and pH was not controlled. Samples were taken periodically between 0 and 48 hr. Samples were filtered through 0.22 micron filters, and the filtrates were analyzed by HPLC as described in General Methods for glucose, xylose, xylitol, and ethanol. Samples were diluted with medium (as described in General Methods) and the OD600 was measured to monitor cell growth. Results of growth and glucose utilization are given in FIGS. 22A and 22B, respectively. Results of xylose utilization and ethanol production are given in FIGS. 23A and 23B, respectively. Cultures with D-sorbitol or L-sorbitol grew faster and better than the control. After 48 hours, the OD600 were 6.2 and 5.2, respectively, for cultures supplemented with D-sorbitol or L-sorbitol; while the OD600 were less than 1 for other cultures. […] The presence of D-sorbitol or L-sorbitol allowed more xylose utilization, without production of xylitol.

We go through one compound from US7629156B2, “Ethanol production in fermentation of mixed sugars containing xylose” (E.I. du Pont de Nemours and Company, priority 2006, dated 2009).

As for `OC[C@@H](O)[C@H](O)[C@@H](O)[C@@H](O)CO` [L-sorbitol], for the setting “10 mM sugar alcohol vs control”, the ethanol production entry was “ethanol production was also better” and the xylose utilization entry is on record as “More xylose was utilized”. The compound further showed an OD600 (after 48 hours, 10 mM sugar alcohol, 92 g/L glucose, 82 g/L xylose) of 5.2.
